From the OligoGym collection
Oligonucleotides are given in HELM: sugar(base)linkage, 5' to 3'; d 2'-deoxyribose, r ribose, m 2'-O-methylribose, p phosphate. ss, as = sense and antisense strand
Also: test concentration or dose not given here.

What follows are substances tested against TMEM63B (assay: reporter assay of Huesken 2005). Settings: siRNA.
In the case of “RNA1{r(G)p.r(U)p.r(A)p.r(U)p.r(C)p.r(U)p.r(G)p.r(C)p.r(U)p.r(G)p.r(C)p.r(U)p.r(C)p.r(A)p.r(C)p.r(C)p.r(G)p.r(U)p.r(C)p.d(T)p.d(T)}|RNA2{r(G)p.r(A)p.r(C)p.r(G)p.r(G)p.r(U)p.r(G)p.r(A)p.r(G)p.r(C)p.r(A)p.r(G)p.r(C)p.r(A)p.r(G)p.r(A)p.r(U)p.r(A)p.r(C)p.d(A)p.d(G)}$$$RNA1{StrandType:ss}|RNA2{StrandType:as}$”, the normalised inhibition (eCFP-eYFP dual reporter) is reported as 65.4%. In the case of “RNA1{r(G)p.r(U)p.r(C)p.r(C)p.r(C)p.r(C)p.r(A)p.r(A)p.r(A)p.r(U)p.r(C)p.r(U)p.r(G)p.r(C)p.r(G)p.r(A)p.r(A)p.r(A)p.r(U)p.d(T)p.d(T)}|RNA2{r(A)p.r(U)p.r(U)p.r(U)p.r(C)p.r(G)p.r(C)p.r(A)p.r(G)p.r(A)p.r(U)p.r(U)p.r(U)p.r(G)p.r(G)p.r(G)p.r(G)p.r(A)p.r(C)p.d(A)p.d(G)}$$$RNA1{StrandType:ss}|RNA2{StrandType:as}$”, the normalised inhibition (eCFP-eYFP dual reporter) is reported as 82%. Substance “RNA1{r(G)p.r(U)p.r(C)p.r(C)p.r(U)p.r(U)p.r(U)p.r(C)p.r(A)p.r(G)p.r(C)p.r(G)p.r(G)p.r(C)p.r(A)p.r(C)p.r(A)p.r(U)p.r(C)p.d(T)p.d(T)}|RNA2{r(G)p.r(A)p.r(U)p.r(G)p.r(U)p.r(G)p.r(C)p.r(C)p.r(G)p.r(C)p.r(U)p.r(G)p.r(A)p.r(A)p.r(A)p.r(G)p.r(G)p.r(A)p.r(C)p.d(A)p.d(G)}$$$RNA1{StrandType:ss}|RNA2{StrandType:as}$” has a normalised inhibition (eCFP-eYFP dual reporter) of 65.1%. “RNA1{r(G)p.r(U)p.r(C)p.r(U)p.r(C)p.r(A)p.r(C)p.r(C)p.r(U)p.r(C)p.r(U)p.r(G)p.r(U)p.r(C)p.r(U)p.r(C)p.r(C)p.r(A)p.r(G)p.d(T)p.d(T)}|RNA2{r(C)p.r(U)p.r(G)p.r(G)p.r(A)p.r(G)p.r(A)p.r(C)p.r(A)p.r(G)p.r(A)p.r(G)p.r(G)p.r(U)p.r(G)p.r(A)p.r(G)p.r(A)p.r(C)p.d(G)p.d(C)}$$$RNA1{StrandType:ss}|RNA2{StrandType:as}$” showed a normalised inhibition (eCFP-eYFP dual reporter) of 88.6%. “RNA1{r(G)p.r(U)p.r(C)p.r(U)p.r(C)p.r(C)p.r(A)p.r(G)p.r(C)p.r(U)p.r(C)p.r(C)p.r(G)p.r(U)p.r(U)p.r(G)p.r(A)p.r(C)p.r(U)p.d(T)p.d(T)}|RNA2{r(A)p.r(G)p.r(U)p.r(C)p.r(A)p.r(A)p.r(C)p.r(G)p.r(G)p.r(A)p.r(G)p.r(C)p.r(U)p.r(G)p.r(G)p.r(A)p.r(G)p.r(A)p.r(C)p.d(A)p.d(G)}$$$RNA1{StrandType:ss}|RNA2{StrandType:as}$” gave a normalised inhibition (eCFP-eYFP dual reporter) of 69.5%. “RNA1{r(G)p.r(U)p.r(G)p.r(A)p.r(A)p.r(U)p.r(G)p.r(A)p.r(G)p.r(A)p.r(A)p.r(G)p.r(C)p.r(C)p.r(U)p.r(C)p.r(U)p.r(U)p.r(G)p.d(T)p.d(T)}|RNA2{r(C)p.r(A)p.r(A)p.r(G)p.r(A)p.r(G)p.r(G)p.r(C)p.r(U)p.r(U)p.r(C)p.r(U)p.r(C)p.r(A)p.r(U)p.r(U)p.r(C)p.r(A)p.r(C)p.d(C)p.d(T)}$$$RNA1{StrandType:ss}|RNA2{StrandType:as}$” showed a normalised inhibition (eCFP-eYFP dual reporter) of 69.3%. “RNA1{r(G)p.r(U)p.r(G)p.r(G)p.r(U)p.r(G)p.r(G)p.r(C)p.r(C)p.r(G)p.r(C)p.r(G)p.r(C)p.r(C)p.r(C)p.r(A)p.r(U)p.r(C)p.r(C)p.d(T)p.d(T)}|RNA2{r(G)p.r(G)p.r(A)p.r(U)p.r(G)p.r(G)p.r(G)p.r(C)p.r(G)p.r(C)p.r(G)p.r(G)p.r(C)p.r(C)p.r(A)p.r(C)p.r(C)p.r(A)p.r(C)p.d(C)p.d(T)}$$$RNA1{StrandType:ss}|RNA2{StrandType:as}$” showed a normalised inhibition (eCFP-eYFP dual reporter) of 46.3%. “RNA1{r(G)p.r(U)p.r(G)p.r(G)p.r(U)p.r(U)p.r(G)p.r(U)p.r(G)p.r(G)p.r(G)p.r(C)p.r(G)p.r(U)p.r(C)p.r(C)p.r(U)p.r(C)p.r(U)p.d(T)p.d(T)}|RNA2{r(A)p.r(G)p.r(A)p.r(G)p.r(G)p.r(A)p.r(C)p.r(G)p.r(C)p.r(C)p.r(C)p.r(A)p.r(C)p.r(A)p.r(A)p.r(C)p.r(C)p.r(A)p.r(C)p.d(C)p.d(A)}$$$RNA1{StrandType:ss}|RNA2{StrandType:as}$” gave a normalised inhibition (eCFP-eYFP dual reporter) of 53.5%. For “RNA1{r(U)p.r(A)p.r(A)p.r(A)p.r(G)p.r(G)p.r(A)p.r(U)p.r(G)p.r(A)p.r(U)p.r(G)p.r(A)p.r(G)p.r(A)p.r(U)p.r(C)p.r(C)p.r(G)p.d(T)p.d(T)}|RNA2{r(C)p.r(G)p.r(G)p.r(A)p.r(U)p.r(C)p.r(U)p.r(C)p.r(A)p.r(U)p.r(C)p.r(A)p.r(U)p.r(C)p.r(C)p.r(U)p.r(U)p.r(U)p.r(A)p.d(T)p.d(C)}$$$RNA1{StrandType:ss}|RNA2{StrandType:as}$”, the normalised inhibition (eCFP-eYFP dual reporter) was 24.7%. “RNA1{r(U)p.r(A)p.r(C)p.r(C)p.r(U)p.r(C)p.r(A)p.r(G)p.r(U)p.r(G)p.r(C)p.r(C)p.r(C)p.r(A)p.r(C)p.r(A)p.r(A)p.r(C)p.r(U)p.d(T)p.d(T)}|RNA2{r(A)p.r(G)p.r(U)p.r(U)p.r(G)p.r(U)p.r(G)p.r(G)p.r(G)p.r(C)p.r(A)p.r(C)p.r(U)p.r(G)p.r(A)p.r(G)p.r(G)p.r(U)p.r(A)p.d(T)p.d(T)}$$$RNA1{StrandType:ss}|RNA2{StrandType:as}$” showed a normalised inhibition (eCFP-eYFP dual reporter) of 51.3%. With “RNA1{r(U)p.r(C)p.r(A)p.r(C)p.r(C)p.r(A)p.r(C)p.r(C)p.r(A)p.r(U)p.r(G)p.r(G)p.r(A)p.r(C)p.r(A)p.r(A)p.r(G)p.r(U)p.r(U)p.d(T)p.d(T)}|RNA2{r(A)p.r(A)p.r(C)p.r(U)p.r(U)p.r(G)p.r(U)p.r(C)p.r(C)p.r(A)p.r(U)p.r(G)p.r(G)p.r(U)p.r(G)p.r(G)p.r(U)p.r(G)p.r(A)p.d(T)p.d(G)}$$$RNA1{StrandType:ss}|RNA2{StrandType:as}$” the normalised inhibition (eCFP-eYFP dual reporter) was 67.7%. For “RNA1{r(U)p.r(C)p.r(A)p.r(C)p.r(C)p.r(U)p.r(G)p.r(C)p.r(C)p.r(C)p.r(C)p.r(A)p.r(U)p.r(C)p.r(A)p.r(U)p.r(C)p.r(G)p.r(U)p.d(T)p.d(T)}|RNA2{r(A)p.r(C)p.r(G)p.r(A)p.r(U)p.r(G)p.r(A)p.r(U)p.r(G)p.r(G)p.r(G)p.r(G)p.r(C)p.r(A)p.r(G)p.r(G)p.r(U)p.r(G)p.r(A)p.d(T)p.d(A)}$$$RNA1{StrandType:ss}|RNA2{StrandType:as}$”, the normalised inhibition (eCFP-eYFP dual reporter) was 73%. “RNA1{r(U)p.r(C)p.r(A)p.r(G)p.r(A)p.r(G)p.r(G)p.r(U)p.r(G)p.r(G)p.r(A)p.r(C)p.r(G)p.r(G)p.r(G)p.r(G)p.r(A)p.r(U)p.r(G)p.d(T)p.d(T)}|RNA2{r(C)p.r(A)p.r(U)p.r(C)p.r(C)p.r(C)p.r(C)p.r(G)p.r(U)p.r(C)p.r(C)p.r(A)p.r(C)p.r(C)p.r(U)p.r(C)p.r(U)p.r(G)p.r(A)p.d(G)p.d(T)}$$$RNA1{StrandType:ss}|RNA2{StrandType:as}$” was tested, and the normalised inhibition (eCFP-eYFP dual reporter) was 29.5%. “RNA1{r(U)p.r(C)p.r(A)p.r(U)p.r(C)p.r(A)p.r(U)p.r(C)p.r(A)p.r(C)p.r(C)p.r(A)p.r(C)p.r(C)p.r(A)p.r(U)p.r(G)p.r(G)p.r(A)p.d(T)p.d(T)}|RNA2{r(U)p.r(C)p.r(C)p.r(A)p.r(U)p.r(G)p.r(G)p.r(U)p.r(G)p.r(G)p.r(U)p.r(G)p.r(A)p.r(U)p.r(G)p.r(A)p.r(U)p.r(G)p.r(A)p.d(T)p.d(G)}$$$RNA1{StrandType:ss}|RNA2{StrandType:as}$” gave a normalised inhibition (eCFP-eYFP dual reporter) of 79.2%. Work on “RNA1{r(U)p.r(C)p.r(A)p.r(U)p.r(G)p.r(A)p.r(C)p.r(C)p.r(U)p.r(A)p.r(C)p.r(A)p.r(G)p.r(U)p.r(A)p.r(U)p.r(C)p.r(A)p.r(C)p.d(T)p.d(T)}|RNA2{r(G)p.r(U)p.r(G)p.r(A)p.r(U)p.r(A)p.r(C)p.r(U)p.r(G)p.r(U)p.r(A)p.r(G)p.r(G)p.r(U)p.r(C)p.r(A)p.r(U)p.r(G)p.r(A)p.d(C)p.d(C)}$$$RNA1{StrandType:ss}|RNA2{StrandType:as}$” yielded a normalised inhibition (eCFP-eYFP dual reporter) of 60.2%. With “RNA1{r(U)p.r(C)p.r(C)p.r(A)p.r(U)p.r(C)p.r(C)p.r(G)p.r(A)p.r(G)p.r(G)p.r(C)p.r(U)p.r(U)p.r(C)p.r(A)p.r(U)p.r(C)p.r(U)p.d(T)p.d(T)}|RNA2{r(A)p.r(G)p.r(A)p.r(U)p.r(G)p.r(A)p.r(A)p.r(G)p.r(C)p.r(C)p.r(U)p.r(C)p.r(G)p.r(G)p.r(A)p.r(U)p.r(G)p.r(G)p.r(A)p.d(G)p.d(A)}$$$RNA1{StrandType:ss}|RNA2{StrandType:as}$” the normalised inhibition (eCFP-eYFP dual reporter) was 65.3%. With “RNA1{r(U)p.r(C)p.r(C)p.r(G)p.r(A)p.r(G)p.r(G)p.r(C)p.r(U)p.r(U)p.r(C)p.r(A)p.r(U)p.r(C)p.r(U)p.r(G)p.r(G)p.r(U)p.r(G)p.d(T)p.d(T)}|RNA2{r(C)p.r(A)p.r(C)p.r(C)p.r(A)p.r(G)p.r(A)p.r(U)p.r(G)p.r(A)p.r(A)p.r(G)p.r(C)p.r(C)p.r(U)p.r(C)p.r(G)p.r(G)p.r(A)p.d(T)p.d(G)}$$$RNA1{StrandType:ss}|RNA2{StrandType:as}$” the normalised inhibition (eCFP-eYFP dual reporter) was 29.2%. Work on “RNA1{r(U)p.r(C)p.r(C)p.r(U)p.r(A)p.r(G)p.r(C)p.r(U)p.r(C)p.r(C)p.r(C)p.r(A)p.r(C)p.r(G)p.r(U)p.r(C)p.r(U)p.r(A)p.r(U)p.d(T)p.d(T)}|RNA2{r(A)p.r(U)p.r(A)p.r(G)p.r(A)p.r(C)p.r(G)p.r(U)p.r(G)p.r(G)p.r(G)p.r(A)p.r(G)p.r(C)p.r(U)p.r(A)p.r(G)p.r(G)p.r(A)p.d(A)p.d(C)}$$$RNA1{StrandType:ss}|RNA2{StrandType:as}$” yielded a normalised inhibition (eCFP-eYFP dual reporter) of 79.7%. “RNA1{r(U)p.r(C)p.r(C)p.r(U)p.r(G)p.r(G)p.r(G)p.r(A)p.r(G)p.r(C)p.r(U)p.r(C)p.r(A)p.r(G)p.r(G)p.r(G)p.r(G)p.r(A)p.r(U)p.d(T)p.d(T)}|RNA2{r(A)p.r(U)p.r(C)p.r(C)p.r(C)p.r(C)p.r(U)p.r(G)p.r(A)p.r(G)p.r(C)p.r(U)p.r(C)p.r(C)p.r(C)p.r(A)p.r(G)p.r(G)p.r(A)p.d(G)p.d(C)}$$$RNA1{StrandType:ss}|RNA2{StrandType:as}$” gave a normalised inhibition (eCFP-eYFP dual reporter) of 52%. Work on “RNA1{r(U)p.r(C)p.r(G)p.r(C)p.r(C)p.r(U)p.r(A)p.r(A)p.r(U)p.r(G)p.r(U)p.r(U)p.r(C)p.r(C)p.r(U)p.r(C)p.r(G)p.r(A)p.r(U)p.d(T)p.d(T)}|RNA2{r(A)p.r(U)p.r(C)p.r(G)p.r(A)p.r(G)p.r(G)p.r(A)p.r(A)p.r(C)p.r(A)p.r(U)p.r(U)p.r(A)p.r(G)p.r(G)p.r(C)p.r(G)p.r(A)p.d(G)p.d(C)}$$$RNA1{StrandType:ss}|RNA2{StrandType:as}$” yielded a normalised inhibition (eCFP-eYFP dual reporter) of 77.9%.
